Test results reported in patent US8716273B2, “N-(amino-heteroaryl)-1H-pyrrolopyridine-2-carboxamides derivatives preparation thereof and their use in therapy” (SANOFI, priority 2006, dated 2014).

Legend:
TRPV1 receptors = target: T1, TRPV1 receptors (Mus musculus, UniProt Q704Y3); experiment: Mouse cornea irritation test (capsaicin-induced eye rubbing); type: in vivo; details: compound 500 μM, 2 μl local application to the cornea 10 minutes before 2 μl of 160 μM capsaicin, rubbings counted for 2 minutes
T1 construct: from tissue; host or cells: cornea of the living mouse (C-fibre innervation)
Procedure: Mouse Cornea Irritation Test
The irritant nature of capsaicin is easily appreciated at the level of the cornea since this organ is one of the most innervated with the C-fibres. In this context, according to preliminary experiments, the application of a very small amount of capsaicin (2 μl at a concentration of 160 μM) to the surface of the cornea of an animal leads to a certain number of stereotypical behaviors associated with irritation, which are easily listed. These include: blinking, rubbing of the instilled eye by the ipsilateral forepaw, rubbing of the face with both forepaws, scratching of the ipsilateral face by the hindpaw. […] Moreover, its appearance is also normal. […] It can be concluded that the duration of action of capsaicin at these doses is less than 2 minutes.
SUMMARY OF THE METHODOLOGY
The principle of the series of tests is to determine whether the compounds of the invention can influence the behavioral response induced by a specified amount of capsaicin. The capsaicin is initially diluted to 25 mM in DMSO and diluted, for final use, in physiological serum with Tween 80 at 10%. It appears, from control studies, that in these conditions the solvent has no effect.
In practice, the test product, prepared at 25 mM in DMSO and diluted for final use in physiological serum with 10% of Tween 80 at the strongest concentration of 500 μM, is administered by local application to the surface of the cornea at a volume of 2 μl, 10 minutes before application of the capsaicin. The animal receives an ocular instillation of 2 μl of a 160 μM capsaicin solution prepared as stated above. For an observation period of 2 minutes following instillation, the number of times the instilled eye is rubbed by the ipsilateral forepaw is counted for each animal.
For a given group, the percentage protection is calculated as follows: P=100−((average number of scratchings of the group treated with the compound/average number of scratchings of the group treated with the solvent)×100)
This percentage protection is averaged for each group of animals (n=number of animals tested with the compound of the invention).

TRPV1 receptor = target: T2, TRPV1 receptor (Rattus norvegicus, UniProt O35433); experiment: Test of inhibition of the current induced by capsaicin on the rat DRG (whole-cell patch-clamp); type: cell-based; details: inhibition of the capsaicin control response, primary culture of neonate rat DRG neurons
T2 construct: The neurons of the DRG express the TRPV1 receptor naturally; endogenous in cells; host or cells: primary culture of neonatal rat dorsal root ganglion neurons
Procedure: Test of Inhibition of the Current Induced by Capsaicin on the Rat DRG
Primary Culture of Rat Dorsal Root Ganglion (DRG) Cells:
The neurons of the DRG express the TRPV1 receptor naturally.
Primary cultures of DRG of neonate rats are prepared from 1-day-old rats. Briefly, after dissection, the ganglia are trypsinized and the cells are dissociated mechanically by careful trituration. The cells are resuspended in Eagle's basic culture medium containing 10% of fetal calf serum, 25 mM KCl, 2 mM glutamine, 100 μg/ml gentamicin and 50 ng/ml of NGF, then deposited on glass slides covered with laminin (0.25×10^6 cells per slide), which are then placed in Corning 12-well plates. The cells are incubated at 37° C. in a humidified atmosphere containing 5% CO2 and 95% air. Cytosine β-D-arabinoside (1 μM) is added 48 h after culture set-up, to prevent the development of non-neuronal cells. The slides are transferred to the test chambers for patch-clamp investigations after 7-10 days in culture.
The measuring chambers (volume 800 μl) containing the cellular preparation are placed on the stage of an inverted microscope (Olympus IMT2) fitted with Hoffman optics (Modulation Contrast, New York) and are observed at magnification of 400×. The chambers are continually perfused by gravity (2.5 ml/min) by means of a solution distributor accepting 8 inlets and whose single outlet, comprising a polyethylene tube (inside diameter 500 μm) is positioned at less than 3 mm from the cell under investigation. […] The total currents (membrane potential fixed at −60 mV) were recorded with an Axopatch 1D amplifier (Axon Instruments, Foster City, Calif.), connected to a PC controlled by Pclamp8 software (Axon Instrument). The current traces are recorded on paper and simultaneously digitized (sampling frequency […]) and saved to the hard disk of the PC.
The application of a micromolar solution of capsaicin induces a cationic input current on the DRG cells (voltage fixed at −70 mV). […] The results are expressed as percentage inhibition of the capsaicin control response.

T2 sequence (O35433 whole entry): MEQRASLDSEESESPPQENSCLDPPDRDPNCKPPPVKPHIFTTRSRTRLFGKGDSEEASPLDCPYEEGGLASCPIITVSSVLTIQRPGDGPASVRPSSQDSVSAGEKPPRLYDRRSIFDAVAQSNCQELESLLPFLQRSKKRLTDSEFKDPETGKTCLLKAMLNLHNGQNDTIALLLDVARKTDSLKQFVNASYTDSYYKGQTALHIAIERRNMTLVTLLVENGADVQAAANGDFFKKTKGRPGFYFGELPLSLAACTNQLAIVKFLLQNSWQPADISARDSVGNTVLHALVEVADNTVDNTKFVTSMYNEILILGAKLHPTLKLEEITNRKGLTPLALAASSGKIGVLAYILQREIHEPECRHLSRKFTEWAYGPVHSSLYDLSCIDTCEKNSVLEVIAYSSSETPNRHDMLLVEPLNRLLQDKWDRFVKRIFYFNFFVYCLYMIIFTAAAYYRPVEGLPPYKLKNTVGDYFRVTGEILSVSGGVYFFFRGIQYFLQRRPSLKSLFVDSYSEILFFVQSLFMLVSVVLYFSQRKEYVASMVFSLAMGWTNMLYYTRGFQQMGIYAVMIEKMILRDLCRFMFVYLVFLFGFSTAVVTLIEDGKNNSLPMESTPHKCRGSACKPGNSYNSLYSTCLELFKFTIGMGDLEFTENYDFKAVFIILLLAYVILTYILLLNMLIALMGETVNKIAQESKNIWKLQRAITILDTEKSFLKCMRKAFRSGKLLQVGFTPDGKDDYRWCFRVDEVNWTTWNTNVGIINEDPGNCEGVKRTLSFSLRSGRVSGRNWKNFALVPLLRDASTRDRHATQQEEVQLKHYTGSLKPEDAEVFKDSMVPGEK
T1 sequence (Q704Y3 whole entry): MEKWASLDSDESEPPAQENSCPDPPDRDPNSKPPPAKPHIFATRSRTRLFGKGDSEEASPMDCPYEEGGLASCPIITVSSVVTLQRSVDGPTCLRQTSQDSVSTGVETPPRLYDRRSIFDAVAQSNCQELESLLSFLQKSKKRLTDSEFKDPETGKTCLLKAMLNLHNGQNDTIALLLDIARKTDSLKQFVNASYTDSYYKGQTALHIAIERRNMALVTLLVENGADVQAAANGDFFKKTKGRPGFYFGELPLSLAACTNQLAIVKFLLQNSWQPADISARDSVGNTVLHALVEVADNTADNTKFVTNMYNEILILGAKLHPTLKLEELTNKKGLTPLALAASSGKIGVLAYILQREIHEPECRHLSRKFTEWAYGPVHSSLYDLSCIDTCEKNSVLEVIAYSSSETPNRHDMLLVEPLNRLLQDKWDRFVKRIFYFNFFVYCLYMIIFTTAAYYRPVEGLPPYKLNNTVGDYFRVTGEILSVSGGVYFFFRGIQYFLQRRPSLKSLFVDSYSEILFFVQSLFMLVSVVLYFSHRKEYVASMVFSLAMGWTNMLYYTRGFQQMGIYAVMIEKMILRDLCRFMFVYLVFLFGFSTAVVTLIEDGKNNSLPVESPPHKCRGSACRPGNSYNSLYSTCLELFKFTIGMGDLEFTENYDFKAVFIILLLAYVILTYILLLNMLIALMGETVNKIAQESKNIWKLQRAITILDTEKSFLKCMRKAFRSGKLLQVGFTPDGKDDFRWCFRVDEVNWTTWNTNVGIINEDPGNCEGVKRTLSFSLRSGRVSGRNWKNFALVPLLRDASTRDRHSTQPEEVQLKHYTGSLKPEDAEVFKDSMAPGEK

| Structure (SMILES) | % P 500 μM (percentage protection) (TRPV1 receptors) [%] | other results |
| --- | --- | --- |
| O=C(Nc1ccc(N2CCCC2)nc1)c1cc2cc(C(F)(F)F)cnc2n1Cc1ccncc1 [Compound 9, N-[6-(Pyrrolidin-1-yl)pyridin-3-yl]-5-trifluoromethyl-1-[(4-pyridyl)methyl]-1H-pyrrolo[2,3-b]pyridine-2-carboxamide] | 43 | – |
| O=C(Nc1ccc(N2CCCC2)nc1)c1cc2cc(C(F)(F)F)cnc2n1Cc1cccc(F)c1 [Compound 6, N-[6-(Pyrrolidin-1-yl)pyridin-3-yl]-5-trifluoromethyl-1-(3-fluorobenzyl)-1H-pyrrolo[2,3-b]pyridine-2-carboxamide] | 30 | inhibition at 0.001 µM (TRPV1 receptor; DRG neuron, compound at 1 nM, read-out: Percentage inhibition in patch DRG): 71% |
| O=C(Nc1ccc(N2CCC(F)(F)C2)nc1)c1cc2cc(C(F)(F)F)cnc2n1Cc1cccc(F)c1 [Compound 12, N-[6-(3,3-difluoropyrrolidin-1-yl)pyridin-3-yl]-5-trifluoromethyl-1-(3-fluorobenzyl)-1H-pyrrolo[2,3-b]pyridine-2-carboxamide] | 83 | – |
| CN(C)c1ncc(NC(=O)c2cc3cc(C(F)(F)F)cnc3n2Cc2cccc(F)c2)cc1C(F)(F)F.Cl [Compound 4, N-(6-N,N-Dimethylamino-5-trifluoromethyl-pyridin-3-yl)-5-trifluoromethyl-1-(3-fluorobenzyl)-1H-pyrrolo[2,3-b]pyridine-2-carboxamide hydrochloride (1:1)] | – | Percentage inhibition in patch DRG (TRPV1 receptor; compound at 1 nM): 98% (1 nM) |
| Cc1cc(N(C)C)ncc1NC(=O)c1cc2cc(C(F)(F)F)cnc2n1Cc1cccc(F)c1.Cl [Compound 3, N-(6-N,N-Dimethylamino-4-methyl-pyridin-3-yl)-5-trifluoromethyl-1-(3-fluorobenzyl)-1H-pyrrolo[2,3-b]pyridine-2-carboxamide hydrochloride (1:1)] | 34 | – |
| CNc1ccc(NC(=O)c2cc3cc(C(F)(F)F)cnc3n2Cc2cccc(F)c2)cn1 [Compound 1, N-[(6-Methylamino)pyridin-3-yl]-5-trifluoromethyl-1-(3-fluorobenzyl)-1H-pyrrolo[2,3-b]pyridine-2-carboxamide] | 51 | – |
| O=C(Nc1ccc(N2CCC2)nc1)c1cc2cc(C(F)(F)F)cnc2n1Cc1cccc(F)c1 [Compound 15, N-[6-(Azetidin-1-yl)pyridin-3-yl]-5-trifluoromethyl-1-(3-fluorobenzyl)-1H-pyrrolo[2,3-b]pyridine-2-carboxamide] | – | inhibition at 0.01 µM (TRPV1 receptor; DRG neuron, compound at 10 nM, read-out: Percentage inhibition in patch DRG): 100% |
